Values after ≈ are worked out from the molar mass of the structure shown. Values joined by “and” are separate entries in the source; they are usually repeats but may differ in a detail not shown here. Equal values may be shown once.
Tests used:
[1] = test system: S. aureus 272123; assay: Real-time ethidium bromide accumulation assay (efflux pump inhibition); details: minute 60
[2] = test system: S. aureus MRSA 272123; assay: MIC determination, broth microdilution; type: cell-based; details: Staphylococcus aureus
Excerpt: Both reference and resistant strains used in this work were employed by our group for the screening of different families of compounds, such as xanthones and thioxanthones.

[3] = test system: E. coli AG100; assay: Real-time ethidium bromide accumulation assay (efflux pump inhibition); details: compound at 50 μM, minute 60
[4] = test system: E. coli AG100A; assay: as above; details: compound at 50 μM, minute 60
[5] = test system: E. coli AG100; assay: Biofilm formation, crystal violet method; type: cell-based, Escherichia coli; details: 50 μM
Method: The antibiofilm effect of the tested compounds was evaluated using the crystal violet method on E. coli AG100, E. coli AG100A, and MRSA 272123. […] CCCP was used as a positive control.
The biofilm-forming ability of the S. aureus strains was studied in 96-well microtiter plates using TSB broth in the presence of compounds. The biofilm-forming ability of the E. coli strains was studied in 96-well microtiter plates using LB broth in the presence of the compounds. […] The final volume was 200 μL in each well. The positive control was CCCP at 50 µM. Plates were incubated for 48 h at 30 °C with gentle shaking at 100 rpm. After the incubation period, the medium was removed and the plate was washed with water to remove unattached cells. A total of 200 μL CV (0.1% [v/v]) was added to each wells and incubated for 15 min at room temperature. CV was discarded from the wells and the plate was washed with water again. Then, 200 μL of 70% ethanol was added to each well and the biofilm formation was determined by measuring the OD at 600 nm using a Multiscan EX ELISA plate reader (Thermo Labsystems, Cheshire, WA, USA). The antibiofilm effect of the compounds was expressed as the percentage (%) decrease in biofilm formation.

[6] = test system: NIH/3T3 mouse fibroblast cell line; assay: Cytotoxicity assay (MTT); type: cell-based; details: NIH3T3, 24 h
Method: The effects of increasing concentrations of compounds on cell growth were tested in 96-well flat-bottomed microtiter plates. The compounds were diluted in a volume of 100 μL of medium. Afterwards, 1 × 10^4 cells in 100 μL of medium were added to each well, with the exception of the medium control. In the case of NIH/3T3 cells, the compounds were added after seeding the cells at 37 °C overnight. The plates were incubated at 37 °C for 24 h; after the incubation period, 20 μL of MTT solution (from a 5 mg/mL stock) was added to each well. After 4 h of incubation at 37 °C, 100 μL of SDS solution (10% in 0.01 M HCl) was added to each well and the plates were incubated at 37 °C overnight. Cell growth was determined by measuring the optical density (OD) at 540 nm (ref. 630 nm) with a Multiscan EX ELISA reader. Inhibition of cell growth was determined as IC50 values, defined as the inhibitory dose that reduced the growth of the cells exposed to the tested compounds by 50%. IC50 values and the SD of triplicate experiments were calculated by using GraphPad Prism software version 5.00 for Windows with a nonlinear regression curve fit (GraphPad Software, San Diego, CA, USA; www.graphpad.com, accessed on 14 July 2022). Doxorubicin (from a 2 mg/mL stock solution, Teva Pharmaceuticals) was used as the positive control.

[7] = test system: phytopathogenic fungi; set-up: method as in PMID 22409377; details: several phytopathogenic fungi; cited from earlier work
[8] = test system: Enterococcus faecalis; details: E. faecalis B3/101; cited from earlier work
[9] = test system: E. faecalis B3/101; assay: Antibiotic potentiation with vancomycin, broth microdilution; details: Enterococcus faecalis, B3/101, read-out: MIC of vancomycin alone obtained in this study

SMILES | RFI ± SD ([1]; compound at 50 μM) | MIC [2] | RFI ± SD [3] | RFI ± SD [4] | also measured
CC(C)C[C@@H]1NC(=O)[C@@H](Cc2c[nH]c3ccccc23)n2c1nc1ccc(Br)cc1c2=O [Compound 13b] | 1.53 ± 0.02 | > 100 µM | 0.52 ± 0.18 | 0.12 ± 0.05 | 
Cc1ccc2nc3n(c(=O)c2c1)[C@H](Cc1c[nH]c2ccccc12)C(=O)N[C@H]3C(C)C [Compound 13c] | 0.94 ± 0.04 | 100 µM and 40 µg/mL | 0.17 ± 0.02 | 0.13 ± 0.05 | 
O=C1N[C@@H](Cc2ccc(OCc3ccccc3)cc2)c2nc3c(Cl)cc(Cl)cc3c(=O)n2[C@@H]1Cc1c[nH]c2ccccc12 [Compound 13d] | 0.19 ± 0.08 | > 100 µM | −0.01 ± 0.03 | 0.55 ± 0.29 | decrease in biofilm formation [5]: 61%
COc1cccc2c1C(=O)c1c(O)c3c(c(O)c1C2=O)C[C@@](O)(C(=O)CO)C[C@@H]3O[C@H]1C[C@H](N)[C@H](O)[C@H](C)O1 [DOXO, Doxorubicin, reference compound] |  |  |  |  | IC50 [6]: 3.72 ± 0.15 µM
COC(=O)[C@H]1[C@H]2C[C@@H]3c4[nH]c5cc(OC)ccc5c4CCN3C[C@H]2C[C@@H](OC(=O)c2cc(OC)c(OC)c(OC)c2)[C@@H]1OC [RES, reserpine, reference compound] |  |  |  |  | RFI ± SD ([1]; compound at 25 μM): 0.68 ± 0.05
C[C@@H]1N[C@H]2N(C1=O)c1ccccc1[C@@]2(O)C[C@@H]1C(=O)N[C@@H](C)c2nc3ccccc3c(=O)n21 [fumiquinazoline A] |  |  |  |  | MIC [7]: 12.5 to 25 µg/mL
C[C@H]1NC(=O)[C@@H](Cc2c[nH]c3ccccc23)n2c1nc1ccccc1c2=O [fumiquinazoline G] |  |  |  |  | MIC [7]: 12.5 to 25 µg/mL
CN[C@H](CC(C)C)C(=O)N[C@H]1C(=O)N[C@@H](CC(N)=O)C(=O)N[C@H]2C(=O)N[C@H]3C(=O)N[C@H](C(=O)N[C@H](C(=O)O)c4cc(O)cc(O)c4-c4cc3ccc4O)[C@H](O)c3ccc(c(Cl)c3)Oc3cc2cc(c3O[C@@H]2O[C@H](CO)[C@@H](O)[C@H](O)[C@H]2O[C@H]2C[C@](C)(N)[C@H](O)[C@H](C)O2)Oc2ccc(cc2Cl)[C@H]1O [vancomycin, reference compound] |  |  |  |  | MIC [8]: 1024 µg/mL (≈ 707 µM); MIC [9]: 516 µg/mL

Reference: publication PMC10215404, “Effect of Indole-Containing Pyrazino[2,1-b]quinazoline-3,6-diones in the Virulence of Resistant Bacteria” (Antibiotics, 2023)
